Experimental data reported in US11319315B2, “Cyclohexyl acid triazole azoles as LPA antagonists” (BRISTOL-MYERS SQUIBB COMPANY, priority 2017, dated 2022).

The molecules below were run against T1, human LPA1 (Homo sapiens, UniProt Q92633) (assay: LPA1 functional antagonist assay (LPA-induced calcium flux in CHO cells overexpressing human LPA1)). Conditions: inhibition of calcium flux induced by 10 nM LPA, CHO cells overexpressing human LPA1; read-out: hLPA1 IC50.
T1 construct: expressed in transfected cells; host or cells: Chinese hamster ovary (CHO) cells
Type: cell-based
Summary of the method: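 Calcium flux was triggered by 10 nM LPA after 20 min room-temperature compound pre-incubation (final 0.08 nM to 5 μM, 0.5% DMSO) in human LPA1-overexpressing CHO cells carrying calcium dye. Buffer: HBSS with Ca/Mg, 20 mM HEPES, 0.1% fatty-acid-free BSA; IC50s from 4-parameter logistic fits.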

T1 sequence (Q92633 whole entry): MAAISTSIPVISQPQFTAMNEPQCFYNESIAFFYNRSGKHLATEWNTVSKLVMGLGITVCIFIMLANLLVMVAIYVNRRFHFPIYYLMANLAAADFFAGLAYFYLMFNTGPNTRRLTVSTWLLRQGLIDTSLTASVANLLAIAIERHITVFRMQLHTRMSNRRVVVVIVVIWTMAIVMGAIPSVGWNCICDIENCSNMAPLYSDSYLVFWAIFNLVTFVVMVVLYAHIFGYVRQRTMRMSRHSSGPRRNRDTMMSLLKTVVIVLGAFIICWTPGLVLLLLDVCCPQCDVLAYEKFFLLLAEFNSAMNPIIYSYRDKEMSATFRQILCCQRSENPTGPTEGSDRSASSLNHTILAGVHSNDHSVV

SMILES	IC50
Cc1nc(-c2nnn(C)c2CNc2noc(CCC3CCC3)n2)c(F)cc1O[C@H]1CCC[C@H](C(=O)O)C1 [Example 278, (1S,3S)-3-((6-(5-(((5-(2-cyclobutylethyl)-1,2,4-oxadiazol-3-yl)amino)methyl)-1-methyl-1H-1,2,3-triazol-4-yl)-5-fluoro-2-methylpyridin-3-yl)oxy)cyclohexane-1-carboxylic acid]	30 nM
CCc1nc(-c2nnn(C)c2Cn2cc(CC3CC3)nn2)ccc1O[C@H]1CCC[C@H](C(=O)O)C1 [Example 97]	8 nM
Cc1nc(-c2nnn(C)c2Cc2noc(C(C)C3CC3)n2)ccc1O[C@H]1CCC[C@H](C(=O)O)C1 (mixture of isomers) [Example 239, (1S,3S)-3-((6-(5-((5-(1-cyclopropyl-ethyl)-1,2,4-oxadiazol-3-yl)methyl)-1-methyl-1H-1,2,3-triazol-4-yl)-2-methylpyridin-3-yl)oxy)cyclohexane-1-carboxylic acid]	28 nM
Cc1nc(-c2nnn(C)c2CNc2nc(C(C)C)ns2)ccc1O[C@H]1CCC[C@H](C(=O)O)C1 [Example 10]	71 nM
Cc1nc(-c2nnn(C)c2Cn2nnnc2-c2ccc(F)cc2)ccc1O[C@H]1CCC[C@H](C(=O)O)C1 [Example 323, (1S,3S)-3-((6-(5-((5-(4-fluoro-phenyl)-1H-tetrazol-1-yl)methyl)-1-methyl-1H-1,2,3-triazol-4-yl)-2-methylpyridin-3-yl)oxy)cyclo-hexane-1-carboxylic acid]	414 nM
Cc1nc(-c2nnn(C)c2Cc2nc(CC3CC3)no2)ccc1O[C@H]1CCC[C@H](C(=O)O)C1 [Example 246, (1S,3S)-3-((6-(5-((3-(cyclopropyl-methyl)-1,2,4-oxadiazol-5-yl)methyl)-1-methyl-1H-1,2,3-triazol-4-yl)-2-methylpyridin-3-yl)oxy)cyclohexane-1-carboxylic acid]	40 nM
CCc1nc(-c2nnn(C)c2Cn2nnnc2CC2CC2)ccc1O[C@H]1CCC[C@H](C(=O)O)C1 [Example 306, (1S,3S)-3-{[6-(5-{[5-(cyclopropyl-methyl)-1H-1,2,3,4-tetrazol-1-yl]methyl}-1-methyl-1H-1,2,3-triazol-4-yl)-2-ethylpyridin-3-yl]oxy}cyclohexane-1-carboxylic acid]	205 nM
Cc1nc(-c2nnn(C)c2CNc2cnn(C3CCCC3)n2)ccc1O[C@H]1CCC[C@H](C(=O)O)C1 [Example 28]	39 nM
CCCc1nnn(Cc2c(-c3ccc(O[C@H]4CCC[C@H](C(=O)O)C4)cn3)nnn2C)n1 [Example 252, (1S,3S)-3-((6-(1-methyl-5-((5-propyl-2H-tetrazol-2-yl)methyl)-1H-1,2,3-triazol-4-yl)pyridin-3-yl)oxy)cyclohexane-1-carboxylic acid]	531 nM
CCCCn1cnc(OCc2c(-c3ccc(O[C@H]4CCC[C@H](C(=O)O)C4)c(C)n3)nnn2C)n1 [Example 141]	71 nM
Cc1nc(-c2nnn(C)c2Cn2ncc(CC(C)C)n2)ccc1O[C@H]1CCC[C@H](C(=O)O)C1 [Example 260, (1 S,3 S)-3-((6-(5-((4-Isobutyl-2H-1,2,3-triazol-2-yl)methyl)-1-methyl-1H-1,2,3-triazol-4-yl)-2-methylpyridin-3-yl)oxy)cyclohexane-1-carboxylic acid]	35 nM
COCCc1nc(NCc2c(-c3ccc(O[C@H]4CCC[C@H](C(=O)O)C4)c(C)n3)nnn2C)no1 [Example 172]	120 nM
Cc1nc(-c2nnn(C)c2Cn2nnnc2C(C)C)ccc1O[C@H]1CCC[C@H](C(=O)O)C1 [Example 298, (1S,3S)-3-{[2-methyl-6-(1-methyl-5-{[5-(propan-2-yl)-1H-1,2,3,4-tetrazol-1-yl]methyl}-1H-1,2,3-triazol-4-yl)pyridin-3-yl]oxy}cyclohexane-1-carboxylic acid]	96 nM
Cc1c(O[C@H]2CCC[C@H](C(=O)O)C2)ccc(-c2nnn(C)c2Cn2nnc(OCC3CC3)n2)[n+]1[O-] [Example 349, 3-{[(1S,3S)-3-carboxycyclohexyl]oxy}-6-(5-{[5-(cyclopropyl-methoxy)-2H-1,2,3,4-tetrazol-2-yl]methyl}-1-methyl-1H-1,2,3-triazol-4-yl)-2-methylpyridin-1-ium-1-olate]	304 nM
CCCO[C@@H](C)c1nc(NCc2c(-c3ccc(O[C@H]4CCC[C@H](C(=O)O)C4)c(C)n3)nnn2C)no1 [Example 220]	160 nM
Cc1nc(-c2nnn(C)c2Cn2nnc(C(C)C)n2)ccc1O[C@H]1CCC[C@H](C(=O)O)C1 [Example 299, (1S,3S)-3-{[2-methyl-6-(1-methyl-5-{[5-(propan-2-yl)-2H-1,2,3,4-tetrazol-2-yl]methyl}-1H-1,2,3-triazol-4-yl)pyridin-3-yl]oxy}cyclo-hexane-1-carboxylic acid]	99 nM
Cc1nc(-c2nnn(C)c2COc2nnnn2CC(C)C)ccc1O[C@H]1CCC[C@H](C(=O)O)C1 [Example 144]	94 nM
Cc1nc(-c2nnn(C)c2Cn2nc(C3CCC3)oc2=N)ccc1O[C@H]1CCC[C@H](C(=O)O)C1 [Example 46]	137 nM
Cc1nc(-c2nnn(C)c2Cn2nnc(S(C)(=O)=O)n2)ccc1O[C@H]1CCC[C@H](C(=O)O)C1 [Example 343, (1S,3S)-3-[(6-{5-[(5-methane-sulfonyl-2H-1,2,3,4-tetrazol-2-yl)methyl]-1-methyl-1H-1,2,3-triazol-4-yl}-2-methylpyridin-3-yl)oxy]cyclohexane-1-carboxylic acid]	1100 nM
CSc1nnn(Cc2c(-c3ccc(O[C@H]4CCC[C@H](C(=O)O)C4)c(C)n3)nnn2C)n1 [Example 353, (1S,3S)-3-{[2-methyl-6-(1-methyl-5-{[5-(methylsulfanyl)-2H-1,2,3,4-tetrazol-2-yl]methyl}-1H-1,2,3-triazol-4-yl)pyridin-3-yl]oxy}cyclohexane-1-carboxylic acid]	800 nM
Cc1nc(-c2nnn(C)c2CNc2noc(CCCF)n2)ccc1O[C@H]1CCC[C@H](C(=O)O)C1 [Example 184]	74 nM
Cc1nc(-c2nnn(C)c2CNc2noc(CCC(C)(C)F)n2)ccc1O[C@H]1CCC[C@H](C(=O)O)C1 [Example 179]	43.5 nM
Cc1nc(-c2nnn(C)c2CNc2nc(C(C)(C)C)ns2)ccc1O[C@H]1CCC[C@H](C(=O)O)C1 [Example 3, (1 S,3 S)-3-((6-(5-(((3-(tert-Butyl)-1,2,4-thiadiazol-5-yl)amino)methyl)-1-methyl-1H-1,2,3-triazol-4-yl)-2-methylpyridin-3-yl)oxy)cyclohexanecarboxylic acid]	236 nM
Cc1nc(-c2nnn(C)c2COc2nc(C(C)C)ns2)ccc1O[C@H]1CCC[C@H](C(=O)O)C1 [Example 128]	98 nM
Cc1nc(-c2nnn(C)c2CNc2nsc(Nc3ccccc3)n2)ccc1O[C@H]1CCC[C@H](C(=O)O)C1 [Example 121]	470 nM
Cc1nc(-c2nnn(C)c2Cn2cnnc2CC2CC2)ccc1O[C@H]1CCC[C@H](C(=O)O)C1 [Example 209]	2080 nM
Cc1nc(-c2nnn(C)c2CNc2nnc(CC3CC3)o2)ccc1O[C@H]1CCC[C@H](C(=O)O)C1 [Example 56]	136 nM
Cc1nc(-c2nnn(C)c2Cn2nnc(OCCC3CC3)n2)ccc1O[C@H]1CCC[C@H](C(=O)O)C1 [Example 316, (1 S,3S)-3-((6-(5-((5-(2-cyclopropylethoxy)-2H-tetrazol-2-yl)methyl)-1-methyl-1H-1,2,3-triazol-4-yl)-2-methylpyridin-3-yl)oxy)cyclohexane-1-carboxylic acid]	22 nM
CCCc1nc(OCc2c(-c3ccc(O[C@H]4CCC[C@H](C(=O)O)C4)c(C)n3)nnn2C)no1 [Example 131]	19 nM
Cc1nc(-c2nnn(C)c2CNc2nnn(-c3ccc(Cl)cc3)n2)ccc1O[C@H]1CCC[C@H](C(=O)O)C1 [Example 384, (1S,3S)-3-((6-(5-(((2-(4-chloro-phenyl)-2H-tetrazol-5-yl)amino)methyl)-1-methyl-1H-1,2,3-triazol-4-yl)-2-methylpyridin-3-yl)oxy)cyclohexane-1-carboxylic acid]	41 nM

Same assay, conditions: read-out: hLPA1 IC50

SMILES	IC50
CCCCn1nnc(Cc2c(-c3ccc(O[C@H]4CCC[C@H](C(=O)O)C4)c(C)n3)nnn2C)n1 [Example 366, (1S,3S)-3-((6-(5-((2-butyl-2H-tetrazol-5-yl)methyl)-1-methyl-1H-1,2,3-triazol-4-yl)-2-methylpyridin-3-yl)oxy)cyclohexane-1-carboxylic acid]	43 nM
COCCCOc1nnn(Cc2c(-c3ccc(O[C@H]4CCC[C@H](C(=O)O)C4)c(C)n3)nnn2C)n1 [Example 404, (1S,3S)-3-{[6-(5-{[5-(3-methoxy-propoxy)-2H-1,2,3,4-tetrazol-2-yl]methyl}-1-methyl-1H-1,2,3-triazol-4-yl)-2-methylpyridin-3-yl]oxy}cyclohexane-1-carboxylic acid]	365 nM
Cc1nc(-c2nnn(C)c2Cn2nnc(NCc3ccccc3)n2)ccc1O[C@H]1CCC[C@H](C(=O)O)C1 [Example 368, (1S,3S)-3-((6-(5-((5-(benzylamino)-2H-tetrazol-2-yl)methyl)-1-methyl-1H-1,2,3-triazol-4-yl)-2-methyl-pyridin-3-yl)oxy)cyclohexane-1-carboxylic acid]	1020 nM
Cc1nc(-c2nnn(C)c2Cc2nnn(CC(C)C)n2)ccc1O[C@H]1CCC[C@H](C(=O)O)C1 [Example 373, (1S,3S)-3-((6-(5-((2-isobutyl-2H-tetrazol-5-yl)methyl)-1-methyl-1H-1,2,3-triazol-4-yl)-2-methylpyridin-3-yl)oxy)cyclohexane-1-carboxylic acid]	136 nM
CCc1nc(-c2nnn(C)c2CNc2nc(C(C)C)ns2)ccc1O[C@H]1CCC[C@H](C(=O)O)C1 [Example 398, (1S,3S)-3-((2-ethyl-6-(5-(((3-isopropyl-1,2,4-thiadiazol-5-yl)amino)methyl)-1-methyl-1H-1,2,3-triazol-4-yl)pyridin-3-yl)oxy)cyclohexane-1-carboxylic acid]	59 nM
